Test results: US4861789A, “Dihydro-indene-amine-dihydrooxazoles” (Beecham Group plc, priority 1986, dated 1989)
Where a name gives a salt, the structure may show the parent alone. Read-outs that look alike come from different tables or passages of the source.

Tests used:
[1] = target: T1, α2-Adrnoceptor (Homo sapiens, UniProt P08913); experiment: α2-Adrenoceptor binding ([3H] Rauwolscine, human platelet membranes)
T1 construct: from tissue; host or cells: human platelet membranes
T1 sequence (P08913 1-465): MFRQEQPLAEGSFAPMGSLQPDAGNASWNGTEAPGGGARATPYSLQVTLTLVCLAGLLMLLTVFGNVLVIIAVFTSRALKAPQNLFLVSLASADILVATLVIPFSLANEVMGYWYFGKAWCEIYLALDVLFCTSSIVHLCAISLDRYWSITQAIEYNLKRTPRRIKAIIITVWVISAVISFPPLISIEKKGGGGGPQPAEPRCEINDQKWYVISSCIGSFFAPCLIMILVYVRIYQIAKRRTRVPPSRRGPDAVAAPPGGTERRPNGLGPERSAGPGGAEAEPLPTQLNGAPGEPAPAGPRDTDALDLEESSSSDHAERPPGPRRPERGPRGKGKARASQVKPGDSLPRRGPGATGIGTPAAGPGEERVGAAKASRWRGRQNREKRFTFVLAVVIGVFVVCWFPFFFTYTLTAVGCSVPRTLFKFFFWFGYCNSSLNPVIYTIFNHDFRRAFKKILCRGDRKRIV
Protocol: Human platelet membranes were incubated with [^3 H] Rauwolscine (0.5-1.0 nM) for 30 minutes at 30° C. with varying concetrates of the drug (0.1-10,000 nM). The binding assay was stopped by filtering and rinsing on GF B glass fibre filters.
Binding Affinity (Ki) was calculated using the Cheng-Prussoff equation.

[2] = system: Adrenaline-Exacerbated Glucose Intolerance; experiment: Reversal of Adrenaline-Exacerbated Glucose Intolerance in Mice; type: in vivo, CFLP female mice; details: 20 μmol/kg oral gavage, 30 min before glucose (1 g/kg) and adrenaline (300 μg/kg) s.c.; blood samples 0-120 min; versus water dosed control
Protocol: Reversal of Adrenaline-Exacerbated Glucose Intolerance in Mice CFLP female mice of about 25 g were fasted for 24 hours prior to receiving water (10 ml/kg) or the compound by oral gavage. Thirty minutes later, glucose (1 g/kg) and adrenaline (300 μg/kg) were injected subcutaneously. Blood samples for glucose analysis were taken serially from the tail of each mouse at 0, 30, 60, 90 and 120 minutes after dosing glucose and the results are expressed below as the percentage reduction in the area under the blood glucose curve; the compound treated groups being compared to the water dosed control group. Six mice were used in each treatment group.

Row | Compound | Ki [1] | % Reduction in area under Blood Glucose Curve [2] | Ki ([1]; [3H] Rauwolscine (0.5-1.0 nM), human platelet membranes, 30 minutes at 30° C., Cheng-Prussoff equation, read-out: Binding Affinity Ki)
1 | c1ccc2c(c1)CC(NC1=NCCO1)C2 [Example 1, 2-[2-(2,3-Dihydro-1H-indene)amino]4,5-dihydrooxazole] | 1 nM | 35% | –
2 | Clc1cccc2c1CC(NC1=NCCO1)C2 (stereo not shown) [Example 3, 2-[2-(4-Chloro-2,3-dihydro-1H-indene)amino]4,5-dihydrooxazole] | 1 nM | 42% | –
3 | Cc1ccc2c(c1)CC(NC1=NCCO1)C2 (stereo not shown) [Example 5, 2-[2-(2,3-dihydro-5-methyl-1H-indene)amino]4,5-dihydrooxazole] | 25 nM | – | –
4 | c1ccc2c(c1)CC(NC1=NCCS1)C2 [Example 9, 2-[2-(2,3-Dihydro-1H-indene)amino]4,5-dihydrothiazole] | – | 33% | 190 nM
5 | C[C@H]1c2ccccc2C[C@H]1NC1=NCCO1 (relative stereo) [Example 6, 2-[cis-2-(2,3-dihydro-1-methyl-1H-indene)amino]4,5-dihydrooxazole] | 2 nM | – | –
6 | c1ccc2c(c1)CC(NC1=NCCN1)C2 [Example 2, 2-[2-(2,3-Dihydro-1H-indene)amino)4,5-dihydroimidazole hydrochloride hemihydrate] | 98 nM | – | –
7 | C[C@H]1c2ccccc2C[C@@H]1NC1=NCCO1 (relative stereo) [Example 7, 2-[Trans-2-(2,3-dihydro-1-methyl-1H-indene)amino]4,5-dihydrooxazole] | 2 nM | – | –
8 | Clc1ccc2c(c1)CC(NC1=NCCO1)C2 (stereo not shown) [Example 4, 2-[2-(5-Chloro-2,3-dihydro-1H-indene)amino]4,5-dihydrooxazole] | 25 nM | 44% | –
9 | c1ccc2c(c1)CCC(NC1=NCCO1)C2 (stereo not shown) [Example 8, 2-[2-(1,2,3,4-Tetrahydronaphthyl)amino]4,5-dihydrooxazole] | – | 18% | –
